Laboratory results reported in ChEMBL document CHEMBL1146842, “Design, synthesis, and biological evaluations of novel quinolones as HIV-1 non-nucleoside reverse transcriptase inhibitors” (Bioorg Med Chem Lett, 2006).
pEC50: −log10 of the molar value.

test system: Human immunodeficiency virus 1; experiment: Antiviral activity against HIV1 K103N mutant; type: functional, organism-based; details: not given

Row | SMILES | pEC50
1 | C=CCCCC12CC1(C(=O)OCC)C(=O)Nc1ccc(Cl)cc12 (stereo not drawn) | 5.90
2 | CCCCCCC12CC1(C(=O)OCC)C(=O)Nc1ccc(Cl)cc12 (stereo not drawn) | 5.51
3 | CCCCC12CC1(COC)C(=O)Nc1ccc(Cl)cc12 (stereo not drawn) | 5.54
4 | CCCCC12CC1(COC(C)=O)C(=O)Nc1ccc(Cl)cc12 (stereo not drawn) | 5.58
5 | CCCCCC12CC1(C(=O)OCC)C(=O)Nc1ccc(Cl)cc12 (stereo not drawn) | 6.17
6 | CCCC12CC1(C(=O)OCC)C(=O)Nc1ccc(Cl)cc12 (stereo not drawn) | < 5.00

test system: Human immunodeficiency virus 1; experiment: Antiviral activity against HIV1 Y188L mutant; type: functional, organism-based; details: not given

Row | SMILES | pEC50
7 | C=CCCCC12CC1(C(=O)OCC)C(=O)Nc1ccc(Cl)cc12 (stereo not drawn) | < 5.00
8 | CCCCCCC12CC1(C(=O)OCC)C(=O)Nc1ccc(Cl)cc12 (stereo not drawn) | < 5.00
9 | CCCCC12CC1(COC)C(=O)Nc1ccc(Cl)cc12 (stereo not drawn) | < 5.00
10 | CCCCC12CC1(COC(C)=O)C(=O)Nc1ccc(Cl)cc12 (stereo not drawn) | < 5.00
11 | CCCCCC12CC1(C(=O)OCC)C(=O)Nc1ccc(Cl)cc12 (stereo not drawn) | < 5.00
12 | CCCC12CC1(C(=O)OCC)C(=O)Nc1ccc(Cl)cc12 (stereo not drawn) | < 5.00

test system: Human immunodeficiency virus 1; experiment: Antiviral activity against HIV1 I135V mutant; type: functional, organism-based; details: not given

Row | SMILES | pEC50
13 | C=CCCCC12CC1(C(=O)OCC)C(=O)Nc1ccc(Cl)cc12 (stereo not drawn) | 7.48
14 | CCCCCCC12CC1(C(=O)OCC)C(=O)Nc1ccc(Cl)cc12 (stereo not drawn) | 7.18
15 | CCCCC12CC1(COC)C(=O)Nc1ccc(Cl)cc12 (stereo not drawn) | 7.34
16 | CCCCC12CC1(COC(C)=O)C(=O)Nc1ccc(Cl)cc12 (stereo not drawn) | 7.19
17 | CCCCCC12CC1(C(=O)OCC)C(=O)Nc1ccc(Cl)cc12 (stereo not drawn) | 7.77
18 | CCCC12CC1(C(=O)OCC)C(=O)Nc1ccc(Cl)cc12 (stereo not drawn) | 7.01

test system: Human immunodeficiency virus 1; experiment: Antiviral activity against HIV1 F227L mutant; type: functional, organism-based; details: not given

Row | SMILES | pEC50
19 | C=CCCCC12CC1(C(=O)OCC)C(=O)Nc1ccc(Cl)cc12 (stereo not drawn) | 8.05
20 | CCCCCCC12CC1(C(=O)OCC)C(=O)Nc1ccc(Cl)cc12 (stereo not drawn) | 7.39
21 | CCCCC12CC1(COC)C(=O)Nc1ccc(Cl)cc12 (stereo not drawn) | 7.70
22 | CCCCC12CC1(COC(C)=O)C(=O)Nc1ccc(Cl)cc12 (stereo not drawn) | 9.00
23 | CCCCCC12CC1(C(=O)OCC)C(=O)Nc1ccc(Cl)cc12 (stereo not drawn) | 8.30
24 | CCCC12CC1(C(=O)OCC)C(=O)Nc1ccc(Cl)cc12 (stereo not drawn) | 7.59

test system: Human immunodeficiency virus 1; experiment: Antiviral activity against HIV1 V106A mutant; type: functional, organism-based; details: not given

Row | SMILES | pEC50
25 | C=CCCCC12CC1(C(=O)OCC)C(=O)Nc1ccc(Cl)cc12 (stereo not drawn) | 6.59
26 | CCCCCCC12CC1(C(=O)OCC)C(=O)Nc1ccc(Cl)cc12 (stereo not drawn) | 6.06
27 | CCCCC12CC1(COC)C(=O)Nc1ccc(Cl)cc12 (stereo not drawn) | 6.14
28 | CCCCC12CC1(COC(C)=O)C(=O)Nc1ccc(Cl)cc12 (stereo not drawn) | 5.33
29 | CCCCCC12CC1(C(=O)OCC)C(=O)Nc1ccc(Cl)cc12 (stereo not drawn) | 6.62
30 | CCCC12CC1(C(=O)OCC)C(=O)Nc1ccc(Cl)cc12 (stereo not drawn) | 5.99

test system: Human immunodeficiency virus 1; experiment: Antiviral activity against HIV1 V179E mutant; type: functional, organism-based; details: not given

Row | SMILES | pEC50
31 | C=CCCCC12CC1(C(=O)OCC)C(=O)Nc1ccc(Cl)cc12 (stereo not drawn) | 6.52
32 | CCCCCCC12CC1(C(=O)OCC)C(=O)Nc1ccc(Cl)cc12 (stereo not drawn) | 5.80
33 | CCCCC12CC1(COC)C(=O)Nc1ccc(Cl)cc12 (stereo not drawn) | 6.14
34 | CCCCC12CC1(COC(C)=O)C(=O)Nc1ccc(Cl)cc12 (stereo not drawn) | 6.13
35 | CCCCCC12CC1(C(=O)OCC)C(=O)Nc1ccc(Cl)cc12 (stereo not drawn) | 6.63
36 | CCCC12CC1(C(=O)OCC)C(=O)Nc1ccc(Cl)cc12 (stereo not drawn) | 5.72

test system: Human immunodeficiency virus 1; experiment: Antiviral activity against HIV1 L100I mutant; type: functional, organism-based; details: not given

Row | SMILES | pEC50
37 | C=CCCCC12CC1(C(=O)OCC)C(=O)Nc1ccc(Cl)cc12 (stereo not drawn) | 7.46
38 | CCCCCCC12CC1(C(=O)OCC)C(=O)Nc1ccc(Cl)cc12 (stereo not drawn) | 7.28
39 | CCCCC12CC1(COC)C(=O)Nc1ccc(Cl)cc12 (stereo not drawn) | 7.48
40 | CCCCC12CC1(COC(C)=O)C(=O)Nc1ccc(Cl)cc12 (stereo not drawn) | 7.35
41 | CCCCCC12CC1(C(=O)OCC)C(=O)Nc1ccc(Cl)cc12 (stereo not drawn) | 7.92
42 | CCCC12CC1(C(=O)OCC)C(=O)Nc1ccc(Cl)cc12 (stereo not drawn) | 7.39

test system: Human immunodeficiency virus 1; experiment: Antiviral activity against HIV1 E138K mutant; type: functional, organism-based; details: not given

Row | SMILES | pEC50
43 | C=CCCCC12CC1(C(=O)OCC)C(=O)Nc1ccc(Cl)cc12 (stereo not drawn) | 7.24
44 | CCCCCCC12CC1(C(=O)OCC)C(=O)Nc1ccc(Cl)cc12 (stereo not drawn) | 7.01
45 | CCCCC12CC1(COC)C(=O)Nc1ccc(Cl)cc12 (stereo not drawn) | 7.38
46 | CCCCC12CC1(COC(C)=O)C(=O)Nc1ccc(Cl)cc12 (stereo not drawn) | 7.27
47 | CCCCCC12CC1(C(=O)OCC)C(=O)Nc1ccc(Cl)cc12 (stereo not drawn) | 7.74
48 | CCCC12CC1(C(=O)OCC)C(=O)Nc1ccc(Cl)cc12 (stereo not drawn) | 6.88

test system: HEK293; experiment: Cytotoxicity against HEK293T cells; type: functional; details: Homo sapiens

Row | SMILES | CC50
49 | C=CCCCC12CC1(C(=O)OCC)C(=O)Nc1ccc(Cl)cc12 (stereo not drawn) | > 10000 nM
50 | CCCCCCC12CC1(C(=O)OCC)C(=O)Nc1ccc(Cl)cc12 (stereo not drawn) | > 10000 nM
51 | CCCCC12CC1(COC)C(=O)Nc1ccc(Cl)cc12 (stereo not drawn) | > 10000 nM
52 | CCCCC12CC1(COC(C)=O)C(=O)Nc1ccc(Cl)cc12 (stereo not drawn) | > 10000 nM
53 | CCCCCC12CC1(C(=O)OCC)C(=O)Nc1ccc(Cl)cc12 (stereo not drawn) | > 10000 nM
54 | CCCC12CC1(C(=O)OCC)C(=O)Nc1ccc(Cl)cc12 (stereo not drawn) | > 10000 nM

test system: Human immunodeficiency virus 1; experiment: Antiviral activity against HIV1; type: functional, organism-based; details: not given

Row | SMILES | pEC50
55 | C=CCCCC12CC1(C(=O)OCC)C(=O)Nc1ccc(Cl)cc12 (stereo not drawn) | 9.00
56 | CCCCCCC12CC1(C(=O)OCC)C(=O)Nc1ccc(Cl)cc12 (stereo not drawn) | 7.60
57 | CCCCC12CC1(COC)C(=O)Nc1ccc(Cl)cc12 (stereo not drawn) | 7.35
58 | CCCCC12CC1(COC(C)=O)C(=O)Nc1ccc(Cl)cc12 (stereo not drawn) | 7.43
59 | CCCCCC12CC1(C(=O)OCC)C(=O)Nc1ccc(Cl)cc12 (stereo not drawn) | 9.00
60 | CCCC12CC1(C(=O)OCC)C(=O)Nc1ccc(Cl)cc12 (stereo not drawn) | 7.35

test system: Human immunodeficiency virus 1; experiment: Antiviral activity against HIV1 Y181C mutant; type: functional, organism-based; details: not given

Row | SMILES | pEC50
61 | C=CCCCC12CC1(C(=O)OCC)C(=O)Nc1ccc(Cl)cc12 (stereo not drawn) | < 5.00
62 | CCCCCCC12CC1(C(=O)OCC)C(=O)Nc1ccc(Cl)cc12 (stereo not drawn) | 5.65
63 | CCCCC12CC1(COC)C(=O)Nc1ccc(Cl)cc12 (stereo not drawn) | 5.30
64 | CCCCC12CC1(COC(C)=O)C(=O)Nc1ccc(Cl)cc12 (stereo not drawn) | 5.13
65 | CCCCCC12CC1(C(=O)OCC)C(=O)Nc1ccc(Cl)cc12 (stereo not drawn) | 6.03
66 | CCCC12CC1(C(=O)OCC)C(=O)Nc1ccc(Cl)cc12 (stereo not drawn) | < 5.00

test system: Human immunodeficiency virus 1; experiment: Antiviral activity against HIV1 Y181H mutant; type: functional, organism-based; details: not given

Row | SMILES | pEC50
67 | C=CCCCC12CC1(C(=O)OCC)C(=O)Nc1ccc(Cl)cc12 (stereo not drawn) | 7.05
68 | CCCCCCC12CC1(C(=O)OCC)C(=O)Nc1ccc(Cl)cc12 (stereo not drawn) | 7.21
69 | CCCCC12CC1(COC)C(=O)Nc1ccc(Cl)cc12 (stereo not drawn) | 6.92
70 | CCCCC12CC1(COC(C)=O)C(=O)Nc1ccc(Cl)cc12 (stereo not drawn) | 7.23
71 | CCCCCC12CC1(C(=O)OCC)C(=O)Nc1ccc(Cl)cc12 (stereo not drawn) | 7.80
72 | CCCC12CC1(C(=O)OCC)C(=O)Nc1ccc(Cl)cc12 (stereo not drawn) | 6.68

test system: Human immunodeficiency virus 1; experiment: Antiviral activity against HIV1 Y181S mutant; type: functional, organism-based; details: not given

Row | SMILES | pEC50
73 | C=CCCCC12CC1(C(=O)OCC)C(=O)Nc1ccc(Cl)cc12 (stereo not drawn) | 5.77
74 | CCCCCCC12CC1(C(=O)OCC)C(=O)Nc1ccc(Cl)cc12 (stereo not drawn) | 6.03
75 | CCCCC12CC1(COC)C(=O)Nc1ccc(Cl)cc12 (stereo not drawn) | 5.57
76 | CCCCC12CC1(COC(C)=O)C(=O)Nc1ccc(Cl)cc12 (stereo not drawn) | 5.63
77 | CCCCCC12CC1(C(=O)OCC)C(=O)Nc1ccc(Cl)cc12 (stereo not drawn) | 6.43
78 | CCCC12CC1(C(=O)OCC)C(=O)Nc1ccc(Cl)cc12 (stereo not drawn) | 5.92
